Test results from ChEMBL document CHEMBL1671676, “In vitro activity of nemonoxacin, a novel nonfluorinated quinolone, against 2,440 clinical isolates” (2009).
Converted amounts (≈) assume the structure as drawn.

What was measured:
Type in all cases: functional
[1] = system: Staphylococcus epidermidis; experiment: Antibacterial activity against methicillin-susceptible Staphylococcus epidermidis assessed as percent cumulative susceptible isolates at minimum inhibitory concentration of 2 ug/ml by CLSI broth microdilution method; set-up: scale not given: the % may be the effect or the level left
[2] = system: Staphylococcus epidermidis; experiment: Antibacterial activity against methicillin-susceptible Staphylococcus epidermidis assessed as percent cumulative susceptible isolates at minimum inhibitory concentration of 4 ug/ml by CLSI broth microdilution method; set-up: scale not given: the % may be the effect or the level left
[3] = system: Streptococcus pneumoniae; experiment: Antibacterial activity against Streptococcus pneumoniae assessed as percent cumulative susceptible isolates at minimum inhibitory concentration of 0.06 ug/ml by CLSI broth microdilution method; set-up: scale not given: the % may be the effect or the level left
[4] = system: Streptococcus pneumoniae; experiment: Antibacterial activity against Streptococcus pneumoniae assessed as percent cumulative susceptible isolates at minimum inhibitory concentration of […] by CLSI broth microdilution method; set-up: scale not given: the % may be the effect or the level left
[5] = system: Enterobacter cloacae; experiment: Antibacterial activity against Enterobacter cloacae assessed as percent cumulative susceptible isolates at minimum inhibitory concentration of 32 ug/ml by CLSI broth microdilution method; set-up: scale not given: the % may be the effect or the level left
[6] = system: Proteus mirabilis; experiment: Antibacterial activity against Proteus mirabilis assessed as percent cumulative susceptible isolates at minimum inhibitory concentration of 4 ug/ml by CLSI broth microdilution method; set-up: scale not given: the % may be the effect or the level left
[7] = system: Streptococcus pneumoniae; experiment: Antibacterial activity against penicillin-resistant Streptococcus pneumoniae assessed as percent cumulative susceptible isolates at minimum inhibitory concentration of […] by CLSI broth microdilution method; set-up: scale not given: the % may be the effect or the level left
[8] = system: Enterococcus faecalis; experiment: Antibacterial activity against Enterococcus faecalis assessed as percent cumulative susceptible isolates at minimum inhibitory concentration of […] by CLSI broth microdilution method; set-up: scale not given: the % may be the effect or the level left
[9] = system: Enterococcus faecalis; experiment: Antibacterial activity against Enterococcus faecalis assessed as percent cumulative susceptible isolates at minimum inhibitory concentration of 1 ug/ml by CLSI broth microdilution method; set-up: scale not given: the % may be the effect or the level left
[10] = system: Enterococcus faecalis; experiment: Antibacterial activity against Enterococcus faecalis assessed as percent cumulative susceptible isolates at minimum inhibitory concentration of 2 ug/ml by CLSI broth microdilution method; set-up: scale not given: the % may be the effect or the level left
[11] = system: Proteus mirabilis; experiment: Antibacterial activity against Proteus mirabilis assessed as percent cumulative susceptible isolates at minimum inhibitory concentration of 32 ug/ml by CLSI broth microdilution method; set-up: scale not given: the % may be the effect or the level left
[12] = system: Pseudomonas aeruginosa; experiment: Antibacterial activity against Pseudomonas aeruginosa assessed as percent cumulative susceptible isolates at minimum inhibitory concentration of […] by CLSI broth microdilution method; set-up: scale not given: the % may be the effect or the level left
[13] = system: Pseudomonas aeruginosa; experiment: Antibacterial activity against Pseudomonas aeruginosa assessed as percent cumulative susceptible isolates at minimum inhibitory concentration of 2 ug/ml by CLSI broth microdilution method; set-up: scale not given: the % may be the effect or the level left
[14] = system: Pseudomonas aeruginosa; experiment: Antibacterial activity against Pseudomonas aeruginosa assessed as percent cumulative susceptible isolates at minimum inhibitory concentration of 32 ug/ml by CLSI broth microdilution method; set-up: scale not given: the % may be the effect or the level left
[15] = system: Stenotrophomonas maltophilia; experiment: Antibacterial activity against Stenotrophomonas maltophilia assessed as percent cumulative susceptible isolates at minimum inhibitory concentration of 1 ug/ml by CLSI broth microdilution method; set-up: scale not given: the % may be the effect or the level left
[16] = system: Stenotrophomonas maltophilia; experiment: Antibacterial activity against Stenotrophomonas maltophilia assessed as percent cumulative susceptible isolates at minimum inhibitory concentration of 4 ug/ml by CLSI broth microdilution method; set-up: scale not given: the % may be the effect or the level left
[17] = system: Acinetobacter baumannii; experiment: Antibacterial activity against Acinetobacter baumannii assessed as percent cumulative susceptible isolates at minimum inhibitory concentration of […] by CLSI broth microdilution method; set-up: scale not given: the % may be the effect or the level left
[18] = system: Staphylococcus aureus; experiment: Antibacterial activity against Staphylococcus aureus by CLSI M7-A7 broth microdilution method
[19] = system: Staphylococcus aureus; experiment: Antibacterial activity against methicillin-susceptible Staphylococcus aureus assessed as percent cumulative susceptible isolates at minimum inhibitory concentration of 0.06 ug/ml by CLSI broth microdilution method; set-up: scale not given: the % may be the effect or the level left
[20] = system: Staphylococcus aureus; experiment: Antibacterial activity against methicillin-susceptible Staphylococcus aureus assessed as percent cumulative susceptible isolates at minimum inhibitory concentration of […] by CLSI broth microdilution method; set-up: scale not given: the % may be the effect or the level left
[21] = system: Staphylococcus aureus; experiment: Antibacterial activity against methicillin-susceptible Staphylococcus aureus assessed as percent cumulative susceptible isolates at minimum inhibitory concentration of 0.5 ug/ml by CLSI broth microdilution method; set-up: scale not given: the % may be the effect or the level left
[22] = system: Enterococcus faecium; experiment: Antibacterial activity against Enterococcus faecium assessed as percent cumulative susceptible isolates at minimum inhibitory concentration of 2 ug/ml by CLSI broth microdilution method; set-up: scale not given: the % may be the effect or the level left
[23] = system: Escherichia coli; experiment: Antibacterial activity against Escherichia coli assessed as percent cumulative susceptible isolates at minimum inhibitory concentration of […] by CLSI broth microdilution method; set-up: scale not given: the % may be the effect or the level left
[24] = system: Escherichia coli; experiment: Antibacterial activity against Escherichia coli assessed as percent cumulative susceptible isolates at minimum inhibitory concentration of 0.5 ug/ml by CLSI broth microdilution method; set-up: scale not given: the % may be the effect or the level left
[25] = system: Escherichia coli; experiment: Antibacterial activity against Escherichia coli assessed as percent cumulative susceptible isolates at minimum inhibitory concentration of 1 ug/ml by CLSI broth microdilution method; set-up: scale not given: the % may be the effect or the level left
[26] = system: Escherichia coli; experiment: Antibacterial activity against Escherichia coli assessed as percent cumulative susceptible isolates at minimum inhibitory concentration of 4 ug/ml by CLSI broth microdilution method; set-up: scale not given: the % may be the effect or the level left
[27] = system: Escherichia coli; experiment: Antibacterial activity against Escherichia coli assessed as percent cumulative susceptible isolates at minimum inhibitory concentration of 32 ug/ml by CLSI broth microdilution method; set-up: scale not given: the % may be the effect or the level left
[28] = system: Klebsiella pneumoniae; experiment: Antibacterial activity against Klebsiella pneumoniae assessed as percent cumulative susceptible isolates at minimum inhibitory concentration of 0.06 ug/ml by CLSI broth microdilution method; set-up: scale not given: the % may be the effect or the level left
[29] = system: Klebsiella pneumoniae; experiment: Antibacterial activity against Klebsiella pneumoniae assessed as percent cumulative susceptible isolates at minimum inhibitory concentration of 0.5 ug/ml by CLSI broth microdilution method; set-up: scale not given: the % may be the effect or the level left
[30] = system: Klebsiella pneumoniae; experiment: Antibacterial activity against Klebsiella pneumoniae assessed as percent cumulative susceptible isolates at minimum inhibitory concentration of 2 ug/ml by CLSI broth microdilution method; set-up: scale not given: the % may be the effect or the level left
[31] = system: Klebsiella pneumoniae; experiment: Antibacterial activity against Klebsiella pneumoniae assessed as percent cumulative susceptible isolates at minimum inhibitory concentration of 4 ug/ml by CLSI broth microdilution method; set-up: scale not given: the % may be the effect or the level left
[32] = system: Klebsiella oxytoca; experiment: Antibacterial activity against Klebsiella oxytoca assessed as percent cumulative susceptible isolates at minimum inhibitory concentration of […] by CLSI broth microdilution method; set-up: scale not given: the % may be the effect or the level left
[33] = system: Enterobacter cloacae; experiment: Antibacterial activity against Enterobacter cloacae assessed as percent cumulative susceptible isolates at minimum inhibitory concentration of 0.06 ug/ml by CLSI broth microdilution method; set-up: scale not given: the % may be the effect or the level left
[34] = system: Enterobacter cloacae; experiment: Antibacterial activity against Enterobacter cloacae assessed as percent cumulative susceptible isolates at minimum inhibitory concentration of 1 ug/ml by CLSI broth microdilution method; set-up: scale not given: the % may be the effect or the level left
[35] = system: Staphylococcus aureus; experiment: Antibacterial activity against hospital-associated methicillin-resistant Staphylococcus aureus assessed as percent cumulative susceptible isolates at minimum inhibitory concentration of […] by CLSI broth microdilution method; set-up: scale not given: the % may be the effect or the level left
[36] = system: Staphylococcus aureus; experiment: Antibacterial activity against hospital-associated methicillin-resistant Staphylococcus aureus assessed as percent cumulative susceptible isolates at minimum inhibitory concentration of 8 ug/ml by CLSI broth microdilution method; set-up: scale not given: the % may be the effect or the level left
[37] = system: Staphylococcus epidermidis; experiment: Antibacterial activity against methicillin-susceptible Staphylococcus epidermidis assessed as percent cumulative susceptible isolates at minimum inhibitory concentration of […] by CLSI broth microdilution method; set-up: scale not given: the % may be the effect or the level left

Row | SMILES | Activity [1] [%] | Activity [2] [%] | Activity [3] [%] | Activity [4] [%] | Activity [5] [%] | Activity [6] [%] | Activity [7] [%] | Activity [8] [%] | Activity [9] [%] | Activity [10] [%] | Activity [11] [%] | Activity [12] [%] | Activity [13] [%] | Activity [14] [%] | Activity [15] [%] | Activity [16] [%] | Activity [17] [%] | MIC [18] [µg/mL] | MIC90 [18] [µg/mL] | Activity [19] [%] | further results
1 | COc1c(N2C[C@@H](C)C[C@H](N)C2)ccc2c(=O)c(C(=O)O)cn(C3CC3)c12 [NEMONOXACIN] | 97.8 | 100 | 99.4 | 100 | 100 | 81.8 | 84.4 | 67.9 | 90.1 | 97.5 | 93.9 | 4.4 | 66.4 | 91.2 | 26.9 | 73.1 | 73.3 | < 2 | 0.06 (≈ 0.162 µM) | 88.8 | Activity [20]: 92.5%; Activity [21]: 93.9%; Activity [22]: 31.6%; Activity [23]: 68.8%; Activity [24]: 72.5%; Activity [25]: 74.8%; Activity [26]: 75.8%; Activity [27]: 93.2%; Activity [28]: 1.5%; Activity [29]: 77.9%; Activity [30]: 92%; Activity [31]: 94%; Activity [32]: 81.3%; Activity [33]: 8.3%; Activity [34]: 91.7%; Activity [35]: 4%; Activity [36]: 68.7%; Activity [37]: 86%
2 | C[C@H]1COc2c(N3CCN(C)CC3)c(F)cc3c(=O)c(C(=O)O)cn1c23.C[C@H]1COc2c(N3CCN(C)CC3)c(F)cc3c(=O)c(C(=O)O)cn1c23.O [LEVOFLOXACIN] | 55.8 | 62.8 | 0.5 | 10.2 | 100 | 93.9 | 3.1 | 2.5 | 35.8 | 67.9 | 100 | 10.2 | 70.1 | 100 | 46.2 | 84.6 | 80 | ≥ 2 | 16 | 0.5 | Activity [20]: 81.8%; Activity [21]: 88.8%; Activity [22]: 23.7%; Activity [23]: 70%; Activity [24]: 73.6%; Activity [25]: 75.1%; Activity [26]: 75.6%; Activity [27]: 100%; Activity [28]: 69.8%; Activity [29]: 87.4%; Activity [30]: 93%; Activity [31]: 96%; Activity [32]: 100%; Activity [33]: 87.5%; Activity [34]: 91.7%; Activity [35]: 3%; Activity [36]: 4%; Activity [37]: 53.5%
